Legend:
Demodex mites [1] = assay: In vitro Demodex survival time assay; details: in vitro assay (FIG. 3 and 4)
Protocol: FIG. 4 summarizes the activity of 10% chloroquine in water relative to a water control on activity against Demodex mites in an in vitro assay, with an LT50 of 31.6 hours for chloroquine compared to 44.8 hours for the water control, illustrating the inactivation effect of chloroquine on Demodex.
Example 4: In vitro efficacy and mite lifetimes: Relative efficacy of various formulations are evaluated with a Demodex survival time experiments. FIG. 3 tabulates Demodex survival time, expressed in terms of LT50 (time at which 50% of Demodex mites are killed) and/or average minutes to death for various active agents.

Demodex mites [2] = details: dichlorvos 1%, one patient; PCT Pub. No. WO 2015/017328; cited from earlier work

| SMILES | activity against Demodex mites (Demodex mites [1]) | remission of Papulopostular Rosacea (PPR) (Demodex mites [2]) |
| --- | --- | --- |
| CCN(CC)CCCC(C)Nc1ccnc2cc(Cl)ccc12 (centres unmarked) [chloroquine] | has activity against Demodex mites | – |
| COP(=O)(OC)OC=C(Cl)Cl [dichlorvos] | – | complete and continued remission |

Reference: US20210077559A1, “Treating Autoimmune Disorders with Acetylcholinesterase Inhibitors” (priority 2018, published 2021)
